What all share (type): cell-based, human
Experiment [1] concerns multiple myeloma cells U266. Briefly: MTT test, cell viability of U266 cells. On the procedure:
The MTT test is a standard assay addressing cell toxicity of a compound. It is based on the principle that after 3-4 hours of cell incubation with MTT (3-(4,5-dimethylthiazole-2-yl)-2,5-diphenyl tetrazolium bromide) so-called purple formazan crystals develop in living and early apoptotic cells. Dead cells don't produce formazan crystals.
Different cell lines were tested. Unless indicated differently, A549 human lung epithelial cells (derived from lung carcinoma) and L929sA murine fibroblast cells were cultured in DMEM with 10% FCS, 100 U/ml penicillin and 100 μg/ml streptomycin. Unless indicated differently, the human multiple myeloma cell lines L363, U266 and MM1.S were cultured in RPMI 1640 with Glutamax-I, supplemented with 10% FCS, 100 U/ml penicillin and 100 μg/ml streptomycin. Cells were seeded at 5000 cells/well (for adherent A549 and L929sA cells) or at 10000 cells/well (for the multiple myeloma lines in suspension) in 96 well plates. Cells were incubated in the presence of the respective synephrine compounds or vehicle (EtOH; for control test) in a final volume of 0.2 ml for 24 or 48 hours at 37° C. Subsequently, 20 μl of MTT solution (5 mg/ml in phosphate-buffered saline) was added to each well. After 4 hours incubation at 37° C., 80 μl of the extraction buffer (10% SDS, 0.01 M HCl) was added. After overnight incubation at room temperature, the optical densities at 590 nm were measured. Results are illustrated in FIGS. 2 to 6 and are expressed as percentage of viable cells as compared to vehicle-treated controls.
The MTT test was further extended to include alternative synephrine derivatives and a range of multiple myeloma cell lines for which the results are illustrated by FIGS. 3A, 3B and 4A. Human multiple myeloma cell lines L363, U266 and MM1.S were cultured in RPMI 1640 with Glutamax-I, supplemented with 10% FCS, 100 U/ml penicillin and 100 μg/ml streptomycin. Cells were seeded at 10000 cells/well in 96 well plates. Cells were incubated in the presence of test compounds or vehicle in a final volume of 0.2 ml for 24 or 48 hours at 37° C. The test compounds included in the test were the synephrine derivatives CpdA, Naphth, Benz and Isobut, and DEX as a comparative example. Subsequently, 20 μl of MTT solution (5 mg/ml in phosphate-buffered saline) was added to each well. After 4 hours incubation at 37° C., 80 μl of the extraction buffer (10% SDS, 0.01 M HCl) was added. After 48 hours incubation at room temperature, the optical densities at 590 nm were measured. Results are expressed as percentage of viable cells as compared to vehicle-treated controls.

Another experiment has as its system NFκB. The experiment can be described thus: EMSA of NFkB DNA binding in MCF7 cells. As to conditions: pre-treated 10, 1, 0.1, 0.01, 0.001 μM for two hours, TNF 2000 IU/ml 30 min, FIG. 7A. On the procedure:
For the EMSA, the MCF7 cells were pre-treated with varying concentrations of CpdA (10, 1, 0.1, 0.01, and 0.001 μM) and DEX (0.1 μM) for two hours and subsequently TNF-induced or non-TNF-induced during 30 min at 2000 IU/ml. After the induction period, nuclear extracts were examined in EMSA assays. Cells were washed with ice-cold PBS, scraped off, and pelleted in 15 ml of PBS by centrifugation for 5 min at 2600 rpm at 4° C. and lysed for 30 minutes at 4° C. in Totex buffer (20 mM HEPES (pH 7.9), 350 mM NaCl, 1 mM MgCl, 0.5 mM EDTA, 0.1 mM EGTA, 5 mM DTT, 20% glycerol, 1% NP-40, 0.1% PMSF, 1% aprotinin (4 mg/ml leupeptin). Supernatants from a 4000-rpm 10-min centrifugation were collected, aliquoted and stored at −20° C. until further use. Radiolabelled oligonucleotides that correspond to a consensus κB DNA-binding element of the IL-6 promoter, and of activating protein 1 (AP-1) DNA target-were used for appropriate EMSA's. These oligonucleotides of about 25 nucleotides comprise centrally the transcription factor binding motif. […] The samples were analyzed by electrophoresis on 6% native polyacrylamide gels. […] Visualization and quantitation of radioactive signals was carried out by a Phosphorlmager and scanned using a bioimaging analyzer (Personal Molecular Imager® FX Bio-Rad). […]

The next experiment relates to MM1.S cell lines. The experiment can be described thus: Annexin V/PI assay in MM1.S cells. Particulars: 10^-5 M, FIG. 13. On the procedure: 1. […] Procedure: • Human multiple myeloma cell lines L363, U266, MM1.S and MMR.1 are cultured in RPMI 1640 with Glutamax-I, supplemented with 10% FCS, 100 U/ml penicillin and 100 μg/ml streptomycin. Cells are counted and resuspended in fresh medium at a concentration of 1×10^6/ml. Next, 1 ml of cell suspension is transferred to 5 ml culture tubes in the presence of test compounds (DEX, CpdA, CpdA analogues: 10^−7 to 10^−4 M) or vehicle (EtOH) and incubated for 24 or 48 hours at 37° C. • Double-staining of the cells with PI and annexin V is performed according to the instructions of the Annexin V kit (BD Biosciences). • Double-stained cells are analyzed by flow cytometry. […] Graphs are represented as the ratio of early apoptotic cells versus late apoptotic cells (a) or as total % of living cells (b).

The record followed here is US8039501B2, “Synephrine derivatives useful as anti-inflammatory agents” (Universiteit Gent, priority 2005, dated 2011).

Read-outs that look alike come from different tables or passages of the source.

On to `CNCC(Cl)c1ccc(OC(C)=O)cc1.Cl` (stereo not drawn) [CpdA, 2-(4-acetoxyphenyl)-2-chloro-N-methyl-ethylammonium chloride], for which the “Cell killing of U266 cells” value in experiment [1] (10^−4M, serum-containing medium, FIG. 2B) worked out at 60%; in experiment [1] (10^−5M, growth medium with 10% fetal calf serum, 48 hours, FIG. 2B), 10%; in experiment [1] (10^−5M, serum-free growth medium, 24 hours, FIG. 2A) it was 60%. Further, the “Effect on cell viability of U266 cells” value in experiment [1] (10^−6 to 10^−5 M, 10% FCS, FIG. 3A) is listed as 15-20%. Moreover, the cytotoxicity at 100 µM in experiment [1] (Homo sapiens, U-266, 10^−4 M, 10% FCS, FIG. 3A, read-out: Block of U266 cell viability / cell killing) came out at 40%; in experiment [1] (Homo sapiens, U-266, 10^−4M, serum-free medium, FIG. 2A, read-out: Cell killing / reduction of viability of U266 cells), 80%. Moreover, the cytotoxicity at 1 µM in experiment [1] (Homo sapiens, U-266, 10^−6M, serum-free growth medium, 24 hours, FIG. 2A, read-out: Inhibition of viability of U266 cells) stood at 40%. Besides, the “NFkB available for DNA binding (EMSA)” value in the experiment on NFκB is listed as “significant impairment of NFkB available for DNA binding”. For the same molecule, the “Apoptosis (Annexin V/PI staining)” value in the experiment on MM1.S cell lines is recorded as “able to mediate apoptosis in the MM1.S cell lines at 10-5 M, to a much higher extent than Dex”.
